According to US5026836A, “6-sulfenamide, 6-sulfinamide and 6-sulfonamide purines, purine nucleosides, purine nucleotides, pharmaceutical compositions, and processes of making” (priority 1988, dated 1991):
Several values for one entry are separate records, joined by “and”; a condition that tells them apart may be missing. Identical values can stand only once. Entries after “also recorded” stand apart in the source; their conditions may differ.

What was measured:
L1210 cells [1] = experiment: L1210 cells surviving treatment (% of original inoculum); type: in vivo, mouse
Text: Values below 25% are considered capable of producing effective therapy, those below 10% are considered good and those below 5% are considered very good. This expresses the percent of the cells which survived treatment based upon the original cells in the inoculum. Those tests expressed as increases in life span (% ILS) indicate the increased life span of the drug treated group compared to a control group.
As an indicator of reproducible activity, compounds of the invention and other known cancer chemotherapeutic agents were screened against L1210 lymphoid leukemia in vivo utilizing the mouse as a test species. Normal NCI protocols for this test require 10^5 seed cells of the L1210 cell line. However for the purposes of tests with the L1210 cell line in testing the compounds of the invention for antitumor activity, a log greater, i.e. 10^6 cells were utilized.
Tables 2-a and 2-b illustrate a dose response for Compound 19 against L1210 inoculated mice expressed as both increased life span compared to control and as the number of cells of the original inoculum surviving drug treatment. As is evident from the various regimens of drug treatment shown in Tables 2-a and 2-b, effective therapeutic effects are noted and a dose response to Compound 19 is evident. […] Cytosine Arabinoside must be given every three hours. Test results are given utilizing standard protocols based on mean survival time and are expressed as T/C percentages (treated animals/control animals).

[2] = system: human mammary carcinoma MX-1; experiment: Human mammary carcinoma MX-1 tumor weight in nu/nu mice; type: in vivo; conditions: qd days 1,3,5,7,9,11; for Tumor wt, staging day (mean ± 1SD): before treatment (day 17 post implant); for Tumor wt, evaluation day (mean ± 1SD): day 15 of treatment; for δT/δC: ≤20% moderate activity
Description: In this example Compound 19 was tested against reticulum cell sarcoma M5076. For this and certain other tests below, test results are shown as δT/δC. Utilizing this protocol the difference in tumor weight before treatment and after treatment of the treated animals compared to the control animals is determined.
In Example P Compound 19 was tested against human mammary carcinoma MX-1.

[3] = Solubility (maximum solubility); type: physicochemical
[4] = system: L1210/6MP, 6TG, 6TGR cells; experiment: Life span of mice inoculated with L1210 resistant to 6MP, 6TG, 6TGR; type: in vivo, mouse; conditions: for ILS: L1210/6MP,6TG; for activity against drug resistant cells (words): mouse, in vivo
L1210 cells [5] = experiment: Bioassay of viable L1210 cells in brain after intracranial inoculation and ip drug; type: in vivo, mouse; conditions: for crossing of blood brain barrier / CNS penetration (words): mouse, in vivo
Text: BDF1 mice were inoculated intracranially on day 0 with 1×10^5 L1210 cells. […] 24 hr after drug delivery the brains were collected, homogenized, and injected ip into untreated mice. Each mouse received the equivalent of half a brain. Thereafter, life span was monitored and, using inoculum-response data as a base of comparison, estimates were made of the numbers of viable cells in treated and control brains.

[6] = ip 37 mg/kg/inj, bid days 1,3,5,7
[7] = ip 62 mg/kg/inj, bid days 1,4,7
[8] = oral 37 mg/kg/inj, bid days 1,3,5,7
[9] = oral 62 mg/kg/inj, bid days 1,4,7
[10] = listed as 2-amino-9-β-D-ribofuranosyl-9H-purine-6-sulfinamide

## Nc1nc([S+](N)[O-])c2ncn([C@@H]3O[C@H](CO)[C@@H](O)[C@H]3O)c2n1 (mixture of isomers) [Compound 19, 2-amino-9-β-D-ribofuranosyl-9H-purine-6-sulfinamide]
L1210 cells [1]; 104 mg/kg, qd days 1,4,7
  L1210 cells surviving treatment (% of original inoculum): 29%
L1210 cells [1]; 173 mg/kg, qd days 1,3,5,7
  L1210 cells surviving treatment (% of original inoculum): 0.2%
L1210 cells [1]; 173 mg/kg, qd days 1,4,7
  L1210 cells surviving treatment (% of original inoculum): 1.1%
L1210 cells [1]; [6]
  RCP (Residual Cell Population): .32
L1210 cells [1]; ip 62 mg/kg, bid day 1
  L1210 cells surviving (% of day zero inoculum): 0.8%
L1210 cells [1]; ip 62 mg/kg, qd day 1, 62 mg/kg
  L1210 cells surviving (% of day zero inoculum): 0.8% and 8.5%
L1210 cells [1]; ip 62 mg/kg, tid day 1
  L1210 cells surviving (% of day zero inoculum): 0.4%
L1210 cells [1]; [7]
  RCP (Residual Cell Population): .14
L1210 cells [1]; ip 104 mg/kg, qd day 1
  L1210 cells surviving (% of day zero inoculum): 5.4%
L1210 cells [1]; ip 104 mg/kg/day, qd days 1-7, 1 long term survivor not included
  L1210 cells surviving treatment (% of day zero inoculum): 0.04%
L1210 cells [1]; ip 173 mg/kg, qd day 1
  L1210 cells surviving (% of day zero inoculum): 1.4%
L1210 cells [1]; [8]
  RCP (Residual Cell Population): 3.73
L1210 cells [1]; [9]
  RCP (Residual Cell Population): 8.48
[2]; ip 110.8 mg/kg/inj group
  Tumor wt, staging day (mean ± 1SD): 321 ± 132 mg
[2]; ip 138.4 mg/kg/inj group
  Tumor wt, staging day (mean ± 1SD): 330 ± 118 mg
[2]; ip 173.0 mg/kg/inj group
  Tumor wt, staging day (mean ± 1SD): 323 ± 127 mg
[2]; ip 110.8 mg/kg/inj
  Tumor wt, evaluation day (mean ± 1SD): 943 ± 297 mg
  δT/δC: 66.1%
[2]; ip 138.4 mg/kg/inj
  Tumor wt, evaluation day (mean ± 1SD): 884 ± 415 mg
  δT/δC: 58.9%
[2]; ip 173.0 mg/kg/inj
  Tumor wt, evaluation day (mean ± 1SD): 489 ± 104 mg
  δT/δC: 17.6%
[3]
  Maximum solubility (as dosage): 288 mg/kg
  maximum solubility (as dose): 288 mg per kg
  solubility relative to enantiomer B: exhibits solubility characteristics of enantiomer B
  water solubility: water soluble
[4]; 37 mg/kg, bid days 1,3,5,7
  Activity against I.P. L1210 cells resistant to 6MP, 6TG, 6TGR, T/C: 165.6%
[4]; 62 mg/kg, bid day 1
  Activity against I.P. L1210 cells resistant to 6MP, 6TG, 6TGR, T/C: 133.3%
[4]; 62 mg/kg, bid days 1,4,7
  Activity against I.P. L1210 cells resistant to 6MP, 6TG, 6TGR, T/C: 175.0%
[4]; 62 mg/kg, qd day 1
  Activity against I.P. L1210 cells resistant to 6MP, 6TG, 6TGR, T/C: 127.3%
[4]; 62 mg/kg, tid day 1
  Activity against I.P. L1210 cells resistant to 6MP, 6TG, 6TGR, T/C: 133.3%
[4]; 104 mg/kg, bid day 1
  Activity against I.P. L1210 cells resistant to 6MP, 6TG, 6TGR, T/C: 150.0%
[4]; 104 mg/kg, qd day 1
  Activity against I.P. L1210 cells resistant to 6MP, 6TG, 6TGR, T/C: 122.2%
[4]; 173 mg/kg, qd day 1
  Activity against I.P. L1210 cells resistant to 6MP, 6TG, 6TGR, T/C: 144.5%
[4]; [6]
  ILS: 66%
[4]; [7]
  ILS: 75%
[4]; [8]
  ILS: 0%
[4]; [9]
  ILS: 0%
[4]
  activity against drug resistant cells (words): exhibited activity against the drug resistant cells; also recorded: active
[4]; [10]
  activity against drug resistant cells (words): demonstrated activity against cells which have become resistant to other chemotherapeutic agents
L1210 cells [5]; 24 hr after single ip dose (mg/kg): Methotrexate 12, Adriamycin 3, 6-Mercaptopurine 160, Cytosine Arabinoside 1200, Cyclophosphamide 140, Compound 19 173, Tiazofurin 1200, BCNU 20
  Residual cells (% of control brain): 7.9%
L1210 cells [5]; intracranial L1210
  intracranial activity: significant reduction in the number of neoplastic cells in the brain; also recorded: active intracranially
L1210 cells [5]; ip 173 mg/kg day 1
  cell/half brain day 2, cell number: 261016 cell/half brain
  cell/half brain day 2, log10: 5.42 log10
L1210 cells [5]; ip 173 mg/kg day 1, vs control
  change due to drug, cells: -92.08%
  change due to drug, log10: -1.10 log10
L1210 cells [5]
  crossing of blood brain barrier / CNS penetration (words): effectively cross the blood brain barrier
L1210 cells [5]; [10]
  crossing of blood brain barrier / CNS penetration (words): able to penetrate the central nervous system; also recorded: penetrating the central nervous system
